Measured values: patent US20240252572A1, “ANTI-INFLAMMATORY AGENT FOR INTESTINAL CELLS OF DOMESTIC ANIMAL” (SDS BIOTECH K.K., priority 2021, published 2024)

Tested on: BIE (bovine intestinal epithelial) cells
Assay: Inflammatory cytokine gene expression (RT-PCR) in LPS-stimulated bovine intestinal epithelial cells
Type: cell-based
Conditions: CNSL 30 ppm, aspirin 10 ppm, single agents
Description: To evaluate the effect of endotoxin stimulated inflammatory reaction in the intestine, CNSL, vitamin K1 (FUJIFILM Wako Pure Chemical Corporation), or a combination thereof was added to bovine intestinal epithelial cells, the cells were cultured, and cytokine gene expression analysis was performed. Aspirin was used as a positive control. • 1. Seeding of BIE Cells • BIE (bovine intestinal epithelial) cells were seeded in a 12-well plate (manufactured by COSTAR) at 3.0×10^4 cells/well, and cultured in a CO2 incubator. • 2. […] A culture supernatant was collected, the wells were then washed with the sterilized PBS, and adherent cells were solubilized with TRIZOL, and harvested (at 9:00 p.m. on Day 5 and at 9:00 a.m. on Day 6) (12 hours or 24 hours) The sample in which TRIZOL (manufactured by INVITROGEN) is dissolved is partially purified by phenol-chloroform extraction and ethanol precipitation, and then dissolved in 10 μL of RNase-free water, and the O.D. (absorbance) of the resultant is measured with NanoDrop (manufactured by Thermo Fisher Scientific K.K.). […]

CC(=O)Oc1ccccc1C(=O)O [aspirin, acetylsalicylic acid]
action of the inflammation mediators, stimulated by endotoxin (LPS): suppress
